Results on 19 compounds are retold here after patent US20260008783A1, “MODULATORS OF FSHR AND USES THEREOF” (Celmatix Inc., priority 2022, published 2026).

This assay deals with T1, Follicle Stimulating Hormone Receptor (FSHR) (Homo sapiens, UniProt P23945).
T1 construct: HA (N); expressed in transfected cells; host or cells: CHO-K1, transient transfection, pHM6 vector (CMV promoter)
T1 sequence (P23945 18-695): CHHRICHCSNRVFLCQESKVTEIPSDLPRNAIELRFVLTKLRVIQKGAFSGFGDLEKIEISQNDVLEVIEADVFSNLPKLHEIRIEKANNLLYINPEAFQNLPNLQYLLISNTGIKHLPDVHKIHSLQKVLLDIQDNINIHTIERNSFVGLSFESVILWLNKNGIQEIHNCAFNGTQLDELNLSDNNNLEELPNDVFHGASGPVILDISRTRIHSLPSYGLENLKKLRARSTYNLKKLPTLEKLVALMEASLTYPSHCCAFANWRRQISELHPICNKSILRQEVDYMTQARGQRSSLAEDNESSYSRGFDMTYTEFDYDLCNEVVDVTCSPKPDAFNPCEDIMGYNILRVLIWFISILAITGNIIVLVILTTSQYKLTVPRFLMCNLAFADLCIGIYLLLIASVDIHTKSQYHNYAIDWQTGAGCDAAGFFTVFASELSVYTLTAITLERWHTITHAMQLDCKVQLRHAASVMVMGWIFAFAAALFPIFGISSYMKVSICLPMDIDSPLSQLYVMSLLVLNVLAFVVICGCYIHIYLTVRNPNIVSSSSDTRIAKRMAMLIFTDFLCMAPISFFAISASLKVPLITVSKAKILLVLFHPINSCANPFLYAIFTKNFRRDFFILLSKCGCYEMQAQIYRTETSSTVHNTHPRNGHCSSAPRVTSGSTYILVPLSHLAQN
In words: HTRF cAMP agonist assay, FSHR, transiently transfected CHO-K1 cells. Type of assay: cell-based. As to conditions: CHO-K1 cells transiently expressing human FSHR, read-out: IC50 FSHR LANCE CAMP. The text has this: Example 17. HTRF cAMP Agonist Assay Protocol (for FSHR, TSHR, LHCGR)
Mammalian expression vectors designed to express either Follicle Stimulating Hormone Receptor (FSHR), Thyroid Stimulating Hormone Receptor (TSHR), or Luteinizing Hormone/Choriogonadotropin Receptor (LHCGR), were generated with an HA-tag on the N-terminus. All constructs were expressed under a human cytomegalovirus (CMV) immediate early enhancer and promoter using the pHM6 expression vector. The protein coding region was confirmed by sequence analysis to be in-frame and of the expected sequence, matching the following accession numbers: FSHR NM_000145, TSHR NM_000369, and LHCGR NM_000233.
HTRF cAMP assays were performed using Chinese Hamster Ovary (CHO-K1) cell lines transiently expressing human FSH, TSH, and LHCG receptors. 48 hours before the assay, cells were washed with PBS and then dissociated from tissue culture flasks with 0.25% trypsin. Dissociated cells were quenched in full media (F-12K Medium Corning REF #10-025-CV, 10% Avantor Seradigm FB Essence Cat #10803-034, 1% Penicillin/Streptomycin Cytiva HyClone Cat #SV30010) and then collected by centrifugation at 290×g for 5 min. Cells were resuspended in full media and dispensed into 150 mm cell culture dishes (Nest Scientific Cat #715001), at 2.3×10^6 cells/flask. 7 hours later, cells were transfected using Lipofectamine transfection reagent (Invitrogen Cat #18324020). Briefly, 60 μL of lipofectamine was dispensed into 2 mL of Opti-MEM (Gibco Cat #31985070) and incubated for 5 minutes at room temperature. Then, the mixture was added onto […] of DNA and incubated for another 20 minutes at room temperature. Cells were washed with warm (37° C.) PBS. 17.5 mL of Opti-MEM was dispensed onto the cells, followed by addition of the Opti-MEM/lipofectamine/DNA mixture. Cells were incubated overnight in a 37° C., 5% CO2 cell incubator. 17-19 hours later, Opti-MEM was aspirated off the cells and replaced with full media. Cells were incubated for another 24 hours in a 37° C., 5% CO2 cell incubator.
On the day of the assay, cells were washed with PBS and then dissociated from tissue culture flasks with 0.25% trypsin. Dissociated cells were quenched in full media and then collected by centrifugation at 290×g for 5 min. Cells were resuspended in PBS^+/+ (Corning REF #20-030-CV) to a concentration of 2×10^5 cells/mL. 10 μL/well of cells (2,000 cells/well) were dispensed into 384-well Corning plates (REF #3825), in triplicate. Cells were incubated at room temperature for 2 hours.
Example FSHR Modulator compounds were diluted in assay buffer (PBS^+/+, 0.05% BSA Sigma-Aldrich A3059, 500 μM IBMX Sigma-Aldrich 15879) to 3.5× the final assay concentration. 4 μL of test agonist was added to the cells and incubated for 1 hour at room temperature. 10 μL of cAMP detection reagents (LANCE Ultra cAMP Detection Kit PerkinElmer TRF0264) were dispensed onto the cells and plates were incubated for 2 hours at room temperature (cAMP detection reagents were made according to the PerkinElmer kit protocol). Plates were read on an Envision plate reader following PerkinElmer guidelines.
Raw data for all assays was transmitted directly from plate readers into a database for processing. All assay plates contained both positive and negative control wells to allow for data normalization and scaling. In agonist assays, negative control wells contained assay buffer and positive control wells contained […] positive control (10 nM Follicle Stimulating Hormone Sigma-Aldrich F4021, 50 nM Thyroid Stimulating Hormone Sigma-Aldrich 869006, 50 nM Luteinizing Hormone MyBioSource MBS5308806, for their respective receptors). All control wells contained DMSO at a final assay concentration that matched the test compound wells. […]
Percent control data were analyzed by non-linear regression with a sigmoidal dose response algorithm in the database to yield potency and efficacy data.
`COc1cc2c(cc1-c1cncc(C(N)=O)c1)-c1c(c(C(=O)N3CCOCC3(C)C)nn1-c1ccsc1)C2` [Compound 5-03, 5-[3-(3,3-dimethylmorpholine-4-carbonyl)-6-methoxy-1-(3-thienyl)-4H-indeno[1,2-c]pyrazol-7-yl]pyridine-3-carboxamide]: the IC50 was 4.64 nM. With `COc1cc2c(cc1-c1cncc(C(N)=O)c1)-c1c(c(C(=O)N(C)C(C)(C)C)nn1-c1ccsc1)C2` [Compound 5-04, N-tert-butyl-7-(5-carbamoyl-3-pyridyl)-6-methoxy-N-methyl-1-(3-thienyl)-4H-indeno[1,2-c]pyrazole-3-carboxamide], the IC50 was found to be 8.2 nM.

As for `COc1cc2c(cc1-c1ccn(C)n1)-c1c(c(C(=O)N3CCOCC3(C)C)nn1-c1cc(Cl)cc(Cl)c1)C2` [Compound 5-05, [1-(3,5-dichlorophenyl)-6-methoxy-7-(1-methylpyrazol-3-yl)-4H-indeno[1,2-c]pyrazol-3-yl]-(3,3-dimethylmorpholin-4-yl)methanone], the half-inhibitory concentration (IC50) was determined as 559 nM.

Take `COc1cc2c(cc1-c1ccn(C)n1)-c1c(c(C(=O)N(C)C(C)(C)C)nn1-c1cc(Cl)cc(Cl)c1)C2` [Compound 5-06, N-tert-butyl-1-(3,5-dichlorophenyl)-6-methoxy-N-methyl-7-(1-methylpyrazol-3-yl)-4H-indeno[1,2-c]pyrazole-3-carboxamide]: the IC50 is 494 nM.

For `COc1cc2c(cc1-c1ccn(C)n1)-c1c(c(C(=O)N3CCOCC3(C)C)nn1-c1ccsc1)C2` [Compound 5-07, (3,3-dimethylmorpholin-4-yl)-[6-methoxy-7-(1-methylpyrazol-3-yl)-1-(3-thienyl)-4H-indeno[1,2-c]pyrazol-3-yl]methanone], the 50% inhibitory concentration (IC50) is 115 nM. For `COc1cc2c(cc1-c1ccn(C)n1)-c1c(c(C(=O)N(C)C(C)(C)C)nn1-c1ccsc1)C2` [Compound 5-08, N-tert-butyl-6-methoxy-N-methyl-7-(1-methylpyrazol-3-yl)-1-(3-thienyl)-4H-indeno[1,2-c]pyrazole-3-carboxamide], the IC50 stood at 195 nM. The result for `COc1cc2c(cc1Br)-c1c(c(C(=O)N3CCOCC3(C)C)nn1-c1cc(Cl)cc(Cl)c1)CC2` [Compound 6-01A, [8-bromo-1-(3,5-dichlorophenyl)-7-methoxy-4,5-dihydrobenzo[g]indazol-3-yl]-(3,3-dimethylmorpholin-4-yl)methanone] reads 1090 nM; that for `COc1cc2c(cc1-c1cncc(C#N)c1)-c1c(c(C(=O)N3CCOCC3(C)C)nn1-c1cc(Cl)cc(Cl)c1)CC2` [Compound 6-01B, 5-[1-(3,5-dichlorophenyl)-3-(3,3-dimethylmorpholine-4-carbonyl)-7-methoxy-4,5-dihydrobenzo[g]indazol-8-yl]pyridine-3-carbonitrile], 33.3 nM. Take `COc1cc2c(cc1-c1cncc(C(N)=O)c1)-c1c(c(C(=O)N(C)C(C)(C)C)nn1-c1cc(Cl)cc(Cl)c1)CC2` [Compound 6-02, N-tert-butyl-8-(5-carbamoyl-3-pyridyl)-1-(3,5-dichlorophenyl)-7-methoxy-N-methyl-4,5-dihydrobenzo[g]indazole-3-carboxamide]: the IC50 was found to be 8.53 nM. On to `COc1cc2c(cc1Br)-c1c(c(C(=O)N(C)C(C)(C)C)nn1-c1cc(Cl)cc(Cl)c1)CC2` [Compound 6-02A, 8-bromo-N-tert-butyl-1-(3,5-dichlorophenyl)-7-methoxy-N-methyl-4,5-dihydrobenzo[g]indazole-3-carboxamide], for which the IC50 came to 861 nM. On to `COc1cc2c(cc1-c1cncc(C#N)c1)-c1c(c(C(=O)N(C)C(C)(C)C)nn1-c1cc(Cl)cc(Cl)c1)CC2` [Compound 6-02B, N-tert-butyl-8-(5-cyano-3-pyridyl)-1-(3,5-dichlorophenyl)-7-methoxy-N-methyl-4,5-dihydrobenzo[g]indazole-3-carboxamide], for which the IC50 was 31.9 nM. Next, `COc1cc2c(cc1-c1ccn(C)n1)-c1c(c(C(=O)N3CCOCC3(C)C)nn1-c1cc(Cl)cc(Cl)c1)CC2` [Compound 6-03, [1-(3,5-dichlorophenyl)-7-methoxy-8-(1-methylpyrazol-3-yl)-4,5-dihydrobenzo[g]indazol-3-yl]-(3,3-dimethylmorpholin-4-yl)methanone]: 163 nM; `COc1cc2c(cc1-c1ccn(C)n1)-c1c(c(C(=O)N(C)C(C)(C)C)nn1-c1cc(Cl)cc(Cl)c1)CC2` [Compound 6-04, N-tert-butyl-1-(3,5-dichlorophenyl)-7-methoxy-N-methyl-8-(1-methylpyrazol-3-yl)-4,5-dihydrobenzo[g]indazole-3-carboxamide]: 180 nM. In the case of `COc1cc2ccc3c(C(=O)N4CCOCC4(C)C)nn(-c4cc(Cl)cc(Cl)c4)c3c2cc1-c1cncc(C(N)=O)c1` [Compound 6-05, 5-[1-(3,5-dichlorophenyl)-3-(3,3-dimethylmorpholine-4-carbonyl)-7-methoxy-benzo[g]indazol-8-yl]pyridine-3-carboxamide], the IC50 was 5.24 nM.

Consider `COc1cc2ccc3c(C(=O)N(C)C(C)(C)C)nn(-c4cc(Cl)cc(Cl)c4)c3c2cc1-c1cncc(C(N)=O)c1` [Compound 6-06, N-tert-butyl-8-(5-carbamoyl-3-pyridyl)-1-(3,5-dichlorophenyl)-7-methoxy-N-methyl-benzo[g]indazole-3-carboxamide], for which the IC50 came to 13.6 nM. Take `COc1cc2ccc3c(C(=O)N4CCOCC4(C)C)nn(-c4cc(Cl)cc(Cl)c4)c3c2cc1-c1ccn(C)n1` [Compound 6-07, [1-(3,5-dichlorophenyl)-7-methoxy-8-(1-methylpyrazol-3-yl)benzo[g]indazol-3-yl]-(3,3-dimethylmorpholin-4-yl)methanone]: the 50% inhibitory concentration (IC50) is 83.2 nM. In the case of `COc1cc2ccc3c(C(=O)N(C)C(C)(C)C)nn(-c4cc(Cl)cc(Cl)c4)c3c2cc1-c1ccn(C)n1` [Compound 6-08, N-tert-butyl-1-(3,5-dichlorophenyl)-7-methoxy-N-methyl-8-(1-methylpyrazol-3-yl)benzo[g]indazole-3-carboxamide], the IC50 stood at 78.4 nM.

Regarding `COc1cc2c(cc1-c1cncc(C(N)=O)c1)-c1c(c(C(=O)N3CCNCC3C)nn1-c1cc(Cl)cc(Cl)c1)CC2` (stereo not shown) [Compound 8-01, 5-[1-(3,5-dichlorophenyl)-7-methoxy-3-(2-methylpiperazine-1-carbonyl)-4,5-dihydrobenzo[g]indazol-8-yl]pyridine-3-carboxamide], the IC50 worked out at 20.8 nM.

In the case of `COc1cc2c(cc1-c1cncc(C(N)=O)c1)-c1c(c(C(=O)N3CCNCC3(C)C)nn1-c1cc(Cl)cc(Cl)c1)CC2` [Compound 8-02], the IC50 was found to be 30.5 nM.

A word on the IC50: it is the concentration that inhibits the measured activity by half.
